Source: patent US8580816B2, “Carboxylic acid derivatives having an oxazolo[5,4-b]pyridine ring” (Sanofi, priority 2011, dated 2013)

Molecular target: T1, human Edg 1 receptor (Homo sapiens, UniProt P21453)
T1 construct: FLAG (N); expressed in transfected cells
Test: GTP-γ-S assay using human Edg 1 receptors (scintillation proximity assay, CHO Flp-In membrane preparation)
Assay type: biochemical
Settings: test compound at 10 μM; relative to high control 10 μM S1P = 100% activation; membranes of CHO Flp-In cells overexpressing human Edg 1; triplicate
Description: A) GTP-γ-S Assay Using Human Edg 1 Receptors
In order to determine the Edg 1 receptor activation by the compounds of the invention, a GTP-γ-S ((GTP-γ-S=guanosine 5′-[thio]triphosphate) assay for G-protein coupled receptor binding based on the scintillation proximity assay principle was used, employing a cell membrane preparation from a CHO Flp-In cell line which constitutively overexpresses the human Edg 1 receptor.
A membrane preparation was obtained by standard methods from the afore-described CHO Flp-In cell line constitutively overexpressing the human Edg 1 receptor. Briefly, the cryopreserved cells were taken in culture and grown until confluency in T175 cell culture flasks (Becton Dickinson, cat. no. 35 5001). Cell culture was stopped by washing with calcium-free phosphate-buffered saline (PBS; Gibco, cat. no. 14190), and cells were harvested with a rubber-policeman in 4° C. cold and calcium-free PBS supplemented with a protease inhibitor cocktail (complete protease inhibitor; Roche, cat. no. 1697498; 1 tablet per 50 ml) and subsequently centrifuged at 4° C. for 15 min at 1100×g (Heraeus Minifuge T). For cell lysis, the pellet was resuspended in a 4° C. cold hypotonic buffer consisting of 5 mM HEPES (Sigma-Aldrich, cat. no. H-0981), 1 mM EDTA (disodium salt; Merck, cat. No. 8418) supplemented with protease inhibitor cocktail (as above) in which cells were stored for another 15 min on ice. After lysis, cells were centrifuged at 4° C. for 10 min at 400×g (Heraeus Minifuge T). The pellet was disrupted in a Dounce homogenizer, diluted with the supernatant of the previous centrifugation and subsequently centrifuged at 4° C. for 10 min at 500×g (Heraeus Minifuge T) in order to separate nuclei and still intact cells from the membranes mainly present in the supernatant. The supernatant was then diluted in hypotonic buffer and centrifuged (Beckmann, Avanti J251) at approximately 18 600×g for 2 h at 4° C. After centrifugation, the membrane pellet was resuspended in a storing buffer consisting of 20 mM HEPES; 150 mM NaCl (Merck, cat. no. 6400), 1 mM EDTA (as above) supplemented with protease inhibitor cocktail (as above). […] Protein concentration of the membrane preparation was determined in a sample by means of a commercial protein assay (Bio-Rad, DC Protein Assay, cat. nos. 500-0113, 500-0114, 500-0115).
The Edg 1 membrane preparation obtained in (b) was employed in a commercially available scintillation proximity assay (SPA) kit for G-protein coupled receptor binding from Amersham Biosciences/GE Healthcare (code RPNQ0210), in which ligand-induced binding of ^35S-radiolabeled GTP-γ-S to the receptor-containing membrane, which is bound to scintillation beads, stimulates the emission of light and allows to quantify the in vitro activity of the Edg 1 agonistic compound. […]

T1 sequence (P21453 whole entry): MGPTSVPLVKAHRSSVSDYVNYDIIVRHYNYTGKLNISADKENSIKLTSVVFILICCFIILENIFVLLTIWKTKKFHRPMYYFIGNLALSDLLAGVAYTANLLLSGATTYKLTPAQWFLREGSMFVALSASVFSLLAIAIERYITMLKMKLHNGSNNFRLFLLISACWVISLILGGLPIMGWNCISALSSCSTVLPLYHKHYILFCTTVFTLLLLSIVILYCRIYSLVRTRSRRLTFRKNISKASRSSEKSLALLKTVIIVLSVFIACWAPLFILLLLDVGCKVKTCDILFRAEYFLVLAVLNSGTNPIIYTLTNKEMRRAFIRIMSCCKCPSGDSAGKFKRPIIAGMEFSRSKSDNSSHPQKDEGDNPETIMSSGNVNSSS

SMILES | Edg 1 receptor activation in percent of the activation by 10 μM S1P (% activation)
Cc1cc(-c2nc3ccc(Oc4ccccc4F)nc3o2)cc(C)c1OCC(=O)O [Example 1, {4-[5-(2-Fluorophenoxy)oxazolo[5,4-b]pyridin-2-yl]-2,6-dimethylphenoxy}acetic acid] | 74%
Cc1cc(-c2nc3ccc(Oc4ccccc4F)nc3o2)cc(C)c1OC(C)(C)C(=O)O [Example 3, 2-{4-[5-(2-Fluorophenoxy)oxazolo[5,4-b]pyridin-2-yl]-2,6-dimethylphenoxy}-2-methylpropionic acid] | 39%
Cc1cc(-c2nc3ccc(Oc4ccccc4F)nc3o2)cc(C)c1OC(C)C(=O)O (stereo not shown) [Example 2, 2-{4-[5-(2-Fluorophenoxy)oxazolo[5,4-b]pyridin-2-yl]-2,6-dimethylphenoxy}propionic acid] | 51%
Cc1cc(-c2nc3ccc(Oc4ccccc4F)nc3o2)cc(C)c1OCC(C)(C)C(=O)O [Example 4, 3-{4-[5-(2-Fluorophenoxy)oxazolo[5,4-b]pyridin-2-yl]-2,6-dimethylphenoxy}-2,2-dimethylpropionic acid] | 86%
